Ki data for 19 molecules are collected here from patent US20080161344A1, “Melanin Concentrating Hormone Receptor Ligands: Substituted Tetrahydroisoquinoline Analogues” (priority 2004, published 2008).

The target of one assay is MCH receptor (MCH1) (Macaca fascicularis, UniProt A0A2K5VT41). As to the kind of experiment: Melanin concentrating hormone receptor binding assay (125I-Tyr MCH competition, membranes of transfected HEK293 cells). Details: species or system Cynomolgus macaque.
Chain of MCH receptor (MCH1) (A0A2K5VT41 entry or part of it): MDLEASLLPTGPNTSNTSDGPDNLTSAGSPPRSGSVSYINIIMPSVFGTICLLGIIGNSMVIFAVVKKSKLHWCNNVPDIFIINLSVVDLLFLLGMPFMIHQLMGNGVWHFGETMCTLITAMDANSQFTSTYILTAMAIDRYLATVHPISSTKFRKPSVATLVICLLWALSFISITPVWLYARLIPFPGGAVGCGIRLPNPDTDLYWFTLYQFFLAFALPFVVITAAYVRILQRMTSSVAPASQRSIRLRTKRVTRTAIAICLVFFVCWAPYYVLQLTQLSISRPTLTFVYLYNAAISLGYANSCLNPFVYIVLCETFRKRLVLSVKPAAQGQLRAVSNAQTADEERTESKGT
Conditions: not given
Here is the method:
This Example illustrates a standard assay of melanin concentrating hormone receptor binding that may be used to determine the binding affinity of compounds for the MCH receptor.
Cynomolgus macaque hypothalamus MCH1 cDNA is prepared and cloned into PCDNA3.1 (INVITROGEN Corp., Carlsbad, Calif.), and HEK293 cells (American Type Culture Collection, Manassas, Va.) are stably transfected with the MCH1 expression vector as described in PCT International Application publication number WO/03/059289, which published on Jul. 24, 2003. The disclosure of WO 03/059289 at page 52 directed to the preparation and storage of the transfected HEK293 cells is hereby incorporated by reference.
At the time of assay, pellets are thawed by addition of wash buffer (25 mM Hepes with 1.0 mM CaCl2, 5.0 mM MgCl2, 120 mM NaCl, pH 7.4) and homogenized for 30 seconds using a BRINKMAN POLYTRON, setting 5. Cells are centrifuged for 10 minutes at 48,000×g. The supernatant is discarded and the pellet is resuspended in fresh wash buffer, and homogenized again. An aliquot of this membrane homogenate is used to determine protein concentration via the Bradford method (BIO-RAD Protein Assay Kit, #500-0001, BIO-RAD, Hercules, Calif.). By this measure, a 1-liter culture of cells typically yields 50-75 mg of total membrane protein. The homogenate is centrifuged as before and resuspended to a protein concentration of 333 μg/mL in binding buffer (Wash buffer+0.1% BSA and 1.0 μM final phosphoramidon) for an assay volume of 50 μg membrane protein/150 μl binding buffer. Phosphoramidon was from SIGMA BIOCHEMICALS, St. Louis, Mo. (cat# R-7385).
Competition binding assays are performed at room temperature in Falcon 96 well round bottom polypropylene plates. Each assay well contains 150 μL of MCH receptor-containing membranes described above, 50 μL ^125I-Tyr MCH, 50 μL binding buffer, and 2 μL test compound in DMSO. ^125I-Tyr MCH (specific activity=2200 Ci/mmol) is purchased from NEN (Boston, Mass.) and is diluted in binding buffer to provide a final assay concentration of 30 pM.
Non-specific binding is defined as the binding measured in the presence of 1 μM unlabeled MCH. MCH is purchased from BACHEM U.S.A., King of Prussia, Pa. (cat #H-1482). Assay wells used to determine MCH binding contain 150 μL of MCH receptor containing membranes, 50 μL ^125I-Tyr MCH, 25 μL binding buffer and 25 μL binding buffer.
Assay plates are incubated for 1 hour at room temperature. Membranes are harvested onto WALLAC™ glass fiber filters (PERKIN-ELMER, Gaithersburg, Md.) which were pre-soaked with 1.0% PEI (polyethyleneimine) for 2 hours prior to use. Filters are allowed to dry overnight, and then counted in a WALLAC 1205 BETA PLATE counter after addition of WALLAC BETA SCINT™ scintillation fluid.
For saturation binding, the concentration of ^125I-Tyr MCH is varied from 7 to 1,000 pM. Typically, 11 concentration points are collected per saturation binding curve. Equilibrium binding parameters are determined by fitting the allosteric Hill equation to the measured values with the aid of the computer program FitP™ (BIOSOFT, Ferguson, Mo.).
A word on the Ki: it is a dissociation constant, usually derived from enzyme kinetics or from competition with a known ligand. Turning to `COc1cc2c(cc1OC)CN(Cc1ccnc(Oc3ccc(C(C)(C)C)cc3)c1)CC2` [Compound 5, 2-[2-(4-tert-Butyl-phenoxy)-pyridin-4-ylmethyl]-6,7-dimethoxy-1,2,3,4-tetrahydroisoquinoline], the inhibitory constant (Ki) is < 1000 nM. Same read-out and setting: as for `COc1cc2c(cc1OC)CN(Cc1cccc(Oc3ccc(C)cc3)c1)CC2` [Compound 3, 6,7-dimethoxy-2-(3-p-tolyloxy-benzyl)-1,2,3,4-tetrahydroisoquinoline], the figure is < 1000 nM; as for `COc1cc2c(cc1OC)CN(Cc1cccc(Oc3ccc(C(C)(C)C)cc3)c1)CC2` [Compound 1, 2-[3-(4-tert-Butyl-phenoxy)-benzyl]-6,7-dimethoxy-1,2,3,4-tetrahydroisoquinoline], < 1000 nM.

Staying with this assay, now noted: MCH receptor binding assay of Example 2; class symbol; read-out: Ki.
Consider `COc1cc2c(cc1OC)CN(Cc1cccc(Oc3ccc(OC(F)(F)F)cc3)c1)CC2` [Compound 49, 6,7-Dimethoxy-2-[3-(4-trifluoromethoxy-phenoxy)-benzyl]-1,2,3,4-tetrahydroisoquinoline], for which the Ki was < 1000 nM. For `CCOc1cc2c(cc1OC)CN(Cc1cccc(Oc3ccc(C(C)(C)C)cc3)c1)CC2` [Compound 29, 2-[3-(4-tert-Butyl-phenoxy)-benzyl]-6-ethoxy-7-methoxy-1,2,3,4-tetrahydroisoquinoline], the Ki was < 1000 nM. Same read-out and setting: as for `CC(C)(C)c1ccc(Oc2cccc(CN3CCc4cc5c(cc4C3)OCO5)c2)cc1` [Compound 52, 6-[3-(4-tert-Butyl-phenoxy)-benzyl]-5,6,7,8-tetrahydro-[1,3]dioxolo[4,5-g]isoquinoline], the figure is < 1000 nM; as for `COc1cc2c(cc1OC)CN(Cc1cccc(Oc3ccc(C(C)C)cc3)c1)CC2` [Compound 23, 2-[3-(4-Isopropyl-phenoxy)-benzyl]-6,7-dimethoxy-1,2,3,4-tetrahydroisoquinoline], < 1000 nM. Regarding `COc1cc2c(cc1OC)CN(Cc1cccc(Oc3ccc(C#N)cc3)c1)CC2` [Compound 42, 4-[3-(6,7-Dimethoxy-3,4-dihydro-1H-isoquinolin-2-ylmethyl)-phenoxy]-benzonitrile], the inhibitory constant (Ki) was < 1000 nM. The same measure, in the same setting: under `COc1cc2c(cc1OC)CN(Cc1cccc(Oc3ccccc3)c1)CC2` [Compound 43, 6,7-Dimethoxy-2-(3-phenoxy-benzyl)-1,2,3,4-tetrahydroisoquinoline] stands < 1000 nM; under `COc1cc2c(cc1OC)CN(Cc1ccnc(Oc3ccc(C(C)C)cc3)c1)CC2` [Compound 19, 2-[2-(4-Isopropyl-phenoxy)-pyridin-4-ylmethyl]-6,7-dimethoxy-1,2,3,4-tetrahydroisoquinoline], < 1000 nM; under `CCOc1ccc(Oc2cccc(CN3CCc4cc(OC)c(OC)cc4C3)c2)cc1` [Compound 22, 2-[3-(4-Ethoxy-phenoxy)-benzyl]-6,7-dimethoxy-1,2,3,4-tetrahydroisoquinoline], < 1000 nM. As to `CCOc1cc2c(cc1OCC)CN(Cc1cccc(Oc3ccc(C(C)(C)C)cc3)c1)CC2` [Compound 26, 2-[3-(4-tert-Butyl-phenoxy)-benzyl]-6,7-diethoxy-1,2,3,4-tetrahydroisoquinoline], the inhibition constant Ki is < 1000 nM. The same measure, in the same setting: as for `COc1cc2c(cc1OC)CN(Cc1cccc(Oc3ccc(C(C)(C)C)cc3)n1)CC2` [Compound 34, 2-[6-(4-tert-Butyl-phenoxy)-pyridin-2-ylmethyl]-6,7-dimethoxy-1,2,3,4-tetrahydroisoquinoline], the figure is < 1000 nM; as for `COc1cc2c(cc1OC)CN(Cc1cccc(Oc3ccc(C(F)(F)F)cc3)c1)CC2` [Compound 50, 6,7-Dimethoxy-2-[3-(4-trifluoromethyl-phenoxy)-benzyl]-1,2,3,4-tetrahydroisoquinoline], < 1000 nM; as for `CCOc1cc2c(cc1OC)CCN(Cc1cccc(Oc3ccc(C(C)(C)C)cc3)c1)C2` [Compound 31, 2-[3-(4-tert-Butyl-phenoxy)-benzyl]-7-ethoxy-6-methoxy-1,2,3,4-tetrahydroisoquinoline], < 1000 nM. On to `COc1cc2c(cc1OC)CN(Cc1cccc(Oc3ccc(Cl)cc3)c1)CC2` [Compound 21, 2-[3-(4-Chloro-phenoxy)-benzyl]-6,7-dimethoxy-1,2,3,4-tetrahydroisoquinoline], for which the inhibition constant Ki was < 1000 nM. Turning to `COc1ccc(Oc2cccc(CN3CCc4cc(OC)c(OC)cc4C3)c2)cc1` [Compound 47, 6,7-Dimethoxy-2-[3-(4-methoxy-phenoxy)-benzyl]-1,2,3,4-tetrahydroisoquinoline], the inhibitory constant (Ki) was < 1000 nM. Regarding `COc1cc2c(cc1OC)CN(Cc1cccc(Cc3ccccc3)c1)CC2` [Compound 10, 2-(3-Benzyl-benzyl)-6,7-dimethoxy-1,2,3,4-tetrahydroisoquinoline], the Ki was < 1000 nM. Same read-out and setting: as for `CCOc1cc2c(cc1OC)CCN(Cc1ccnc(Oc3ccc(C(C)C)cc3)c1)C2` [Compound 53, 7-Ethoxy-2-[2-(4-isopropyl-phenoxy)-pyridin-4-ylmethyl]-6-methoxy-1,2,3,4-tetrahydroisoquinoline], the figure is < 1000 nM.
